What follows are compounds tested against T1, DipA (Borreliella burgdorferi, UniProt O51379) (assay: biochemical).
T1 construct: gene BB_0418; native protein from outer membrane fraction of B. burgdorferi B31 delta-p66, hydroxyapatite chromatography in Genapol, untagged; predicted 20-residue signal peptide removed; 36 kDa; minor truncated OspA/OspB in fraction
T1 sequence (O51379 entry or part of it): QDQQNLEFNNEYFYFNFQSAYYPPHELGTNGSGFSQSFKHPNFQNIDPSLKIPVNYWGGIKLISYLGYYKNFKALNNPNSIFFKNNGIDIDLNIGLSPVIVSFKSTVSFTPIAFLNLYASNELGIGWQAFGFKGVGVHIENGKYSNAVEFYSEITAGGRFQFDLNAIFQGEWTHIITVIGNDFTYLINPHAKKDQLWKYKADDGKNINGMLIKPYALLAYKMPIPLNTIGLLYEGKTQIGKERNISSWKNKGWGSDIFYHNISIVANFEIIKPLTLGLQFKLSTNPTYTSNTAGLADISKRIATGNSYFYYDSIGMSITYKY
Format: binding
Excerpt: planar lipid bilayer, titration of channel conductance block on DipA
With `O=C(O)CCC(=O)C(=O)O` [2-Oxoglutarate] the Kd was 286 µM.
For `N[C@@H](CC(=O)O)C(=O)O` [Aspartate], the Kd was 769 µM.
`O=C(O)CC(O)(CC(=O)O)C(=O)O` [Citrate] gave a Kd of 76.9 µM.
`O=C(O)/C=C/C(=O)O` [Fumarate] gave a Kd of 2380 µM.
In the case of `N[C@@H](CCC(=O)O)C(=O)O` [Glutamate], the Kd is reported as 800 µM.
For `O=C(O)C[C@H](O)C(=O)O` [Malate], the Kd was 769 µM.
In the case of `O=C(O)/C=C\C(=O)O` [Maleate], the Kd is reported as 35.3 µM.
In the case of `O=C(O)CC(=O)C(=O)O` [Oxaloacetate], the Kd is reported as 50.3 µM.
With `O=C(O)c1ccccc1C(=O)O` [Phthalate] the Kd was 175 µM.
In the case of `CC(=O)C(=O)O` [Pyruvate], the Kd is reported as 2130 µM.
In the case of `O=C(O)CCC(=O)O` [Succinate], the Kd is reported as 164 µM.
